Measurements: US20260130925A1, “METHODS FOR TREATING CANCER” (Genesis Molecular AI, Inc., priority 2022, published 2026)

Legend:
[1] = target: T1, PI3Kα H1047R in T47D cells (Homo sapiens, UniProt P42336, H1047R); assay: PI3Kα cellular assay: T47D pAKT S473 HTRF; format: cell-based; settings: for T47D pAKT S473 HTRF IC50 (H1047R): T47D (H1047R) selectivity over SKBR3 (WT): T47D (H1047R) versus SKBR3 (WT) cells; for IC50: T47D cells (H1047R), serum starved, 1 hr compound, 20 ng/ml EGF 10 min
T1 construct: endogenous in cells; host or cells: T47D
T1 sequence (P42336 whole entry H1047R): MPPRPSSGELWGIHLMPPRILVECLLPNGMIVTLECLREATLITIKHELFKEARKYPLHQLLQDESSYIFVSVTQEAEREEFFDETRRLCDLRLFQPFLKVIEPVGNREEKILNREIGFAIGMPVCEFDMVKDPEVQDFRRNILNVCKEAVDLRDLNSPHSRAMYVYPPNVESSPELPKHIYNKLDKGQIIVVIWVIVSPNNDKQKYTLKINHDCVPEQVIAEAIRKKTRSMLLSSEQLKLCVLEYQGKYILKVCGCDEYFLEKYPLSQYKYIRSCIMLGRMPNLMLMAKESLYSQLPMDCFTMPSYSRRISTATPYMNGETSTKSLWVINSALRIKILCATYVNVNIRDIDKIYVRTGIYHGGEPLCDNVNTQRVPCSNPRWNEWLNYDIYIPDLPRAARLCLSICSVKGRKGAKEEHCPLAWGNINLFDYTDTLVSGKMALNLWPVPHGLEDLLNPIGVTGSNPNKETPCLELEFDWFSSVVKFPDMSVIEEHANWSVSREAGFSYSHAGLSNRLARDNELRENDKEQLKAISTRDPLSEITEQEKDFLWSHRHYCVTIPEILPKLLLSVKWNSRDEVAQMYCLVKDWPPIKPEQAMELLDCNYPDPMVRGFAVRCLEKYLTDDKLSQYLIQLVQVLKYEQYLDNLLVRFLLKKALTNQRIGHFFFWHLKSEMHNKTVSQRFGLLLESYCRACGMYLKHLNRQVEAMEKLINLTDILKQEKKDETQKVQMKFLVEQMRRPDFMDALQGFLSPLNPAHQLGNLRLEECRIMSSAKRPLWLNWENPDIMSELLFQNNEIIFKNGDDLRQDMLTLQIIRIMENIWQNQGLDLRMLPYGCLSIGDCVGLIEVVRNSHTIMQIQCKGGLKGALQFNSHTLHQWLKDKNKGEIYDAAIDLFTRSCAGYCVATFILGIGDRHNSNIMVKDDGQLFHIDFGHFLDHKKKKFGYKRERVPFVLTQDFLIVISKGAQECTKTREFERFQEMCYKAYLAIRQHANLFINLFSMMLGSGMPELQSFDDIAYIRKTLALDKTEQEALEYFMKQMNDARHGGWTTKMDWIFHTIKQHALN
T1 sequence (P27986 whole entry partner): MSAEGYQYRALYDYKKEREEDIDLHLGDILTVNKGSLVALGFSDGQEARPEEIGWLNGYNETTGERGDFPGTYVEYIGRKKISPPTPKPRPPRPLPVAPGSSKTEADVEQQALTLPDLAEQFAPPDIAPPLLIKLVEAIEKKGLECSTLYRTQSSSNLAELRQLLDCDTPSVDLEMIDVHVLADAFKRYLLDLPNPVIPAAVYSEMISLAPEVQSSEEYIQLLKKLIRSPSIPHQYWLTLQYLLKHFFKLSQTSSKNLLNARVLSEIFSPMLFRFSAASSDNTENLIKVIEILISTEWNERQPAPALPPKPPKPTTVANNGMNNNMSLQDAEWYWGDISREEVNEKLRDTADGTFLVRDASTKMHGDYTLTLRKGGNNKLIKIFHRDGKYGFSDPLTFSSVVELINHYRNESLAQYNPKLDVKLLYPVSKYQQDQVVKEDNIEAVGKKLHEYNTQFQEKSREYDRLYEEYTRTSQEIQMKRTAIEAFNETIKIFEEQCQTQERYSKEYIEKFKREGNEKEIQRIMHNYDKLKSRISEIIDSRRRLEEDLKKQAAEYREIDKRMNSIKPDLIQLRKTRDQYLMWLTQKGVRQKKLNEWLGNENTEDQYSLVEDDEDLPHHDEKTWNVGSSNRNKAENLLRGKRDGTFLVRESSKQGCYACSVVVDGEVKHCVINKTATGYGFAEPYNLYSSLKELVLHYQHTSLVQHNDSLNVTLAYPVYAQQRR
Method: PI3Kα cellular assay experimental procedure: SKBR3 or T47D cells are seeded in DMEM containing 10% FBS at 25 k cells/well into 96-well cell culture format. Cells are incubated overnight at 37° C. in a 5% CO2 incubator and the following day cell media is aspirated, adherent cells are washed 1× with room temperature PBS prior to serum-free media application. Cells are returned to 37° C. 5% CO2 incubator and incubated a further 16 hrs. Compounds are added to serum starved adherent cells with a top dose of 10,000 nM and 3× multiple dose reductions for a minimum dose of 0.5 nM diluted in DMSO. Cell/compound incubation continues for 1 hr in a 37° C., 5% CO2 incubator prior to 10 minute PIK3CA stimulation with 20 ng/ml EGF. Cells treated with 0.1% DMSO and 20 ng/mL EGF are employed as negative control, cells treated with 10 uM Alpelisib and 20 ng/mL EGF are employed as a positive control. After 10 mins, plates are removed from incubator and cells are lysed with buffer and shaking 45 minutes. 20 μL of lysate is transferred to an opti-384 plate and 2.5 μl of Phospho-AKT d2 antibody with 2.5 μl of Phospho-AKT Eu Cryptate solution in the detection buffer are added to each well. 384 well plate is left overnight at room temperature before reading HTRF on an Envision plate reader.

PI3K H1047R = PI3K H1047R (Homo sapiens, UniProt P42336, H1047R); assay: PI3K H1047R ADP-Glo (PI/PS); format: biochemical; set-up: PI3K H1047R ADP-Glo (PI/PS) IC50: H1047R Selectivity: reference not given here; settings: for IC50: PI/PS substrate
Sequence of PI3K H1047R (P42336 whole entry H1047R): as the sequence (P42336 whole entry H1047R) above
Sequence of PI3K H1047R (P27986 whole entry partner): as the sequence (P27986 whole entry partner) above

| SMILES | T47D pAKT S473 HTRF IC50 (H1047R): T47D (H1047R) selectivity over SKBR3 (WT) [1] | IC50 [1] [nM] | PI3K H1047R ADP-Glo (PI/PS) IC50: H1047R Selectivity (PI3K H1047R) | IC50 (PI3K H1047R) [nM] |
| --- | --- | --- | --- | --- |
| Cc1cc([C@H](C)Nc2ccccc2C(=O)O)c2cc(-c3ccc4c(c3)c(C)nn4C)ncc2c1 [Compound 83] | C (C denotes ≤5-fold) | ≥ 2000 | C (C denotes ≤5-fold) | ≥ 10000 |
| Cc1cc([C@H](C)Nc2ccccc2C(=O)O)c2cc(N3CCOCC3)ncc2c1 [Compound 58] | C (C denotes ≤5-fold) | ≥ 2000 | – | ≥ 10000 |
| Cc1cc([C@H](C)Nc2ccccc2C(=O)O)c2cc(-c3ccc(F)cc3)n(C)c(=O)c2c1 [Compound 75] | B (B denotes 20-fold≥value>5-fold) | 750 to 2000 | – | ≥ 10000 |
| Cc1cc([C@H](C)Nc2ccccc2C(=O)O)c2cc(-c3ccc4c(c3)c(C)nn4C)n(C)c(=O)c2c1 [Compound 85] | B (B denotes 20-fold≥value>5-fold) | ≥ 2000 | C (C denotes ≤5-fold) | 1000 to 10000 |
| Cc1cc([C@H](C)Nc2ccccc2C(=O)O)c2cc(N3Cc4ccccc4C3)ncc2c1 [Compound 80] | C (C denotes ≤5-fold) | ≥ 2000 | – | ≥ 10000 |
| Cc1cc(C(C)Nc2ccccc2C(=O)O)c2nc(N3CCC(C)(C)CC3)nc(C#N)c2c1 (stereo not shown) [Compound 26, 2-((1-(4-cyano-2-(4,4-dimethylpiperidin-1-yl)-6-methylquinazolin-8-yl)ethyl)amino)benzoic acid] | C (C denotes ≤5-fold) | ≥ 2000 | C (C denotes ≤5-fold) | ≥ 10000 |

The remaining lines, values ahead:

| T47D pAKT S473 HTRF IC50 (H1047R): T47D (H1047R) selectivity over SKBR3 (WT) [1] | IC50 [1] [nM] | PI3K H1047R ADP-Glo (PI/PS) IC50: H1047R Selectivity (PI3K H1047R) | IC50 (PI3K H1047R) [nM] | SMILES |
| --- | --- | --- | --- | --- |
| A (A denotes >20-fold) | < 750 | A (A denotes >20-fold) | < 1000 | Cc1cc(C(C)Nc2ccccc2C(=O)O)c2nc(N3CCC(C)(C)CC3)ncc2c1 (stereo not shown) [Compound 10] |
| A (A denotes >20-fold) | < 750 | B (B denotes 20-fold≥value>5-fold) | < 1000 | Cc1cc([C@@H](C)Nc2ccccc2C(=O)O)c2nc(N3CCC(C)(C)CC3)ncc2c1 [Compound 8] |
| A (A denotes >20-fold) | < 750 | A (A denotes >20-fold) | < 1000 | Cc1cc(C(C)Nc2ccccc2C(=O)O)c2cc(-c3ccc4c(c3)c(C)nn4C)ncc2c1 (stereo not shown) [Compound 88] |
| A (A denotes >20-fold) | < 750 | A (A denotes >20-fold) | < 1000 | Cc1cc([C@@H](C)Nc2ccccc2C(=O)O)c2cc(N3CCOCC3)ncc2c1 [Compound 57] |
| A (A denotes >20-fold) | < 750 | A (A denotes >20-fold) | < 1000 | Cc1cc(C(C)Nc2ccccc2C(=O)O)c2cc(OC3CCOCC3)ncc2c1 (stereo not shown) [Compound 74] |
| A (A denotes >20-fold) | < 750 | A (A denotes >20-fold) | < 1000 | Cc1cc(C(C)Nc2ccccc2C(=O)O)c2cc(-c3ccc(F)cc3)n(C)c(=O)c2c1 (stereo not shown) [Compound 77] |
| A (A denotes >20-fold) | < 750 | A (A denotes >20-fold) | < 1000 | Cc1cc([C@@H](C)Nc2ccccc2C(=O)O)c2cc(N3Cc4ccccc4C3)ncc2c1 [Compound 81] |
